Measurements taken from the NIST ThermoML archive (doi:10.1016/j.jct.2016.06.001).

Conditions: Liquid, Frequency=8 MHz, Pulse-echo method

OCCO [1,2-ethanediol]
Conditions | speed of sound [m/s]
273.15 K, 99 kPa | 1713.8
273.15 K, 5204 kPa | 1727.5
273.15 K, 10344 kPa | 1740.9
273.15 K, 15152 kPa | 1753.2
273.15 K, 20194 kPa | 1765.9
273.15 K, 25132 kPa | 1778.1
273.15 K, 30171 kPa | 1789.9
293.15 K, 99 kPa | 1665.8
293.15 K, 5051 kPa | 1679.8
293.15 K, 10070 kPa | 1693.5
293.15 K, 15176 kPa | 1707.2
293.15 K, 20158 kPa | 1720.2
293.15 K, 25108 kPa | 1732.9
293.15 K, 30024 kPa | 1745.3
313.15 K, 100 kPa | 1618.5
313.15 K, 5031 kPa | 1633.1
313.15 K, 10028 kPa | 1647.3
313.15 K, 15117 kPa | 1661.7
313.15 K, 20088 kPa | 1675.3
313.15 K, 25102 kPa | 1688.7
313.15 K, 29983 kPa | 1701.6
333.15 K, 99 kPa | 1570.7
333.15 K, 5054 kPa | 1586.1
333.15 K, 10048 kPa | 1601.1
333.15 K, 15067 kPa | 1615.8
333.15 K, 20106 kPa | 1630.3
333.15 K, 25103 kPa | 1644.3
333.15 K, 29958 kPa | 1657.7
353.15 K, 100 kPa | 1521.8
353.15 K, 5079 kPa | 1538.1
353.15 K, 10048 kPa | 1553.8
353.15 K, 15054 kPa | 1569.3
353.15 K, 20071 kPa | 1584.4
353.15 K, 25078 kPa | 1599.1
353.15 K, 29995 kPa | 1613.3

CC(O)CO (configuration not stated) [1,2-propanediol]
Conditions | speed of sound [m/s]
303.15 K, 99 kPa | 1494.4
303.15 K, 5091 kPa | 1513.5
303.15 K, 10060 kPa | 1532
303.15 K, 15098 kPa | 1550.2
303.15 K, 20084 kPa | 1567.7
303.15 K, 25068 kPa | 1584.7
303.15 K, 30167 kPa | 1601.6
313.15 K, 99 kPa | 1465.9
313.15 K, 5014 kPa | 1485.5
313.15 K, 10053 kPa | 1504.8
313.15 K, 15011 kPa | 1523.2
313.15 K, 20095 kPa | 1541.5
313.15 K, 25202 kPa | 1559.4
313.15 K, 30222 kPa | 1576.5
333.15 K, 100 kPa | 1408.9
333.15 K, 5039 kPa | 1429.7
333.15 K, 10054 kPa | 1450.1
333.15 K, 15107 kPa | 1469.8
333.15 K, 20131 kPa | 1489
333.15 K, 25131 kPa | 1507.4
333.15 K, 30024 kPa | 1524.9
353.15 K, 99 kPa | 1350.9
353.15 K, 5042 kPa | 1373
353.15 K, 10055 kPa | 1394.6
353.15 K, 15135 kPa | 1415.6
353.15 K, 20093 kPa | 1435.5
353.15 K, 25086 kPa | 1454.8
353.15 K, 30207 kPa | 1474.1

CC(C)CO [2-methyl-1-propanol]
Conditions | speed of sound [m/s]
253.15 K, 102 kPa | 1347.3
253.15 K, 5144 kPa | 1373.7
253.15 K, 10257 kPa | 1399.1
253.15 K, 15122 kPa | 1422.2
253.15 K, 20400 kPa | 1446.6
253.15 K, 25315 kPa | 1468
253.15 K, 30039 kPa | 1488.7
273.15 K, 105 kPa | 1274.2
273.15 K, 5154 kPa | 1302.8
273.15 K, 10139 kPa | 1329.4
273.15 K, 15072 kPa | 1354.7
273.15 K, 20215 kPa | 1380
273.15 K, 25138 kPa | 1403.2
273.15 K, 30242 kPa | 1426.4
293.15 K, 102 kPa | 1204.9
293.15 K, 5004 kPa | 1234.9
293.15 K, 10097 kPa | 1264.2
293.15 K, 15140 kPa | 1291.7
293.15 K, 20220 kPa | 1318.2
293.15 K, 25063 kPa | 1342.5
293.15 K, 30100 kPa | 1366.7
313.15 K, 104 kPa | 1138.1
313.15 K, 5135 kPa | 1171.1
313.15 K, 10050 kPa | 1201.4
313.15 K, 15190 kPa | 1231.5
313.15 K, 20126 kPa | 1259
313.15 K, 25019 kPa | 1285.1
313.15 K, 30259 kPa | 1311.7
333.15 K, 100 kPa | 1071.8
333.15 K, 5187 kPa | 1108
333.15 K, 10181 kPa | 1141.3
333.15 K, 15331 kPa | 1173.6
333.15 K, 20135 kPa | 1202
333.15 K, 25174 kPa | 1230.4
333.15 K, 30144 kPa | 1257
353.15 K, 104 kPa | 1004.1
353.15 K, 5055 kPa | 1042.8
353.15 K, 10093 kPa | 1079.4
353.15 K, 15238 kPa | 1114.2
353.15 K, 20157 kPa | 1145.4
353.15 K, 25111 kPa | 1175.1
353.15 K, 30108 kPa | 1203.6

CCC(C)O (configuration not stated) [butan-2-ol]
Conditions | speed of sound [m/s]
253.15 K, 100 kPa | 1374.6
253.15 K, 5155 kPa | 1400.3
253.15 K, 10194 kPa | 1424.8
253.15 K, 15178 kPa | 1448.1
253.15 K, 20139 kPa | 1470.5
253.15 K, 25051 kPa | 1491.9
253.15 K, 30449 kPa | 1514.4
273.15 K, 100 kPa | 1301.2
273.15 K, 5150 kPa | 1329.2
273.15 K, 10187 kPa | 1355.8
273.15 K, 15226 kPa | 1381.1
273.15 K, 20096 kPa | 1404.6
273.15 K, 25052 kPa | 1427.7
273.15 K, 30040 kPa | 1450
293.15 K, 102 kPa | 1229.1
293.15 K, 5048 kPa | 1258.9
293.15 K, 10078 kPa | 1287.7
293.15 K, 15045 kPa | 1314.6
293.15 K, 20093 kPa | 1340.9
293.15 K, 25164 kPa | 1366
293.15 K, 29995 kPa | 1389
313.15 K, 100 kPa | 1156.3
313.15 K, 5081 kPa | 1189.2
313.15 K, 10051 kPa | 1220
313.15 K, 15034 kPa | 1249.2
313.15 K, 20050 kPa | 1277.2
313.15 K, 25148 kPa | 1304.3
313.15 K, 30041 kPa | 1329.3
333.15 K, 101 kPa | 1081.4
333.15 K, 5111 kPa | 1117.8
333.15 K, 10069 kPa | 1151.4
333.15 K, 15039 kPa | 1183
333.15 K, 20109 kPa | 1213.5
333.15 K, 25122 kPa | 1242.1
333.15 K, 30086 kPa | 1269.2
353.15 K, 119 kPa | 1003.7
353.15 K, 5050 kPa | 1043.6
353.15 K, 10149 kPa | 1081.5
353.15 K, 15213 kPa | 1116.5
353.15 K, 20040 kPa | 1147.9
353.15 K, 25218 kPa | 1179.7
353.15 K, 30032 kPa | 1207.7

OCCCO [propan-1,3-diol]
Conditions | speed of sound [m/s]
293.15 K, 100 kPa | 1635.2
293.15 K, 5030 kPa | 1650
293.15 K, 10062 kPa | 1664.6
293.15 K, 15066 kPa | 1678.9
293.15 K, 20096 kPa | 1692.9
293.15 K, 24997 kPa | 1706.3
293.15 K, 30029 kPa | 1719.9
313.15 K, 99 kPa | 1589.5
313.15 K, 5048 kPa | 1605.1
313.15 K, 10031 kPa | 1620.3
313.15 K, 15138 kPa | 1635.4
313.15 K, 20064 kPa | 1649.8
313.15 K, 25191 kPa | 1664.4
313.15 K, 30167 kPa | 1678.3
333.15 K, 100 kPa | 1544.1
333.15 K, 5058 kPa | 1560.3
333.15 K, 10054 kPa | 1576.2
333.15 K, 15024 kPa | 1591.7
333.15 K, 20153 kPa | 1607.2
333.15 K, 25135 kPa | 1622
333.15 K, 30136 kPa | 1636.6
353.15 K, 101 kPa | 1497.6
353.15 K, 5038 kPa | 1514.6
353.15 K, 10023 kPa | 1531.3
353.15 K, 15089 kPa | 1547.8
353.15 K, 20158 kPa | 1563.9
353.15 K, 25109 kPa | 1579.3
353.15 K, 30076 kPa | 1594.4

CC(C)O [propan-2-ol]
Conditions | speed of sound [m/s]
253.15 K, 99 kPa | 1301
253.15 K, 5138 kPa | 1328.8
253.15 K, 10106 kPa | 1354.9
253.15 K, 15136 kPa | 1380
253.15 K, 20143 kPa | 1404
253.15 K, 25229 kPa | 1427.5
253.15 K, 30036 kPa | 1448.9
273.15 K, 100 kPa | 1227.9
273.15 K, 5275 kPa | 1258.8
273.15 K, 10173 kPa | 1286.4
273.15 K, 15164 kPa | 1313.3
273.15 K, 20289 kPa | 1339.6
273.15 K, 25102 kPa | 1363.3
273.15 K, 30264 kPa | 1387.7
293.15 K, 100 kPa | 1157.4
293.15 K, 5085 kPa | 1189.7
293.15 K, 10183 kPa | 1220.8
293.15 K, 15273 kPa | 1250.2
293.15 K, 20239 kPa | 1277.4
293.15 K, 25220 kPa | 1303.6
293.15 K, 30278 kPa | 1328.9
313.15 K, 100 kPa | 1087.2
313.15 K, 5177 kPa | 1123.1
313.15 K, 10104 kPa | 1155.7
313.15 K, 15187 kPa | 1187.5
313.15 K, 20126 kPa | 1216.6
313.15 K, 25138 kPa | 1244.7
313.15 K, 30110 kPa | 1271.1
333.15 K, 100 kPa | 1016
333.15 K, 5048 kPa | 1054.5
333.15 K, 10038 kPa | 1090.6
333.15 K, 15065 kPa | 1124.6
333.15 K, 20102 kPa | 1156.5
333.15 K, 25093 kPa | 1186.4
333.15 K, 30014 kPa | 1214.4
353.15 K, 100 kPa | 940.5
353.15 K, 5080 kPa | 983.88
353.15 K, 10091 kPa | 1023.9
353.15 K, 15114 kPa | 1060.8
353.15 K, 20132 kPa | 1095.3
353.15 K, 25164 kPa | 1127.6
353.15 K, 30380 kPa | 1159.2
